Laboratory results from ChEMBL document CHEMBL1201862, “PubChem BioAssay data set” (2004).
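Test compounds were applied to cells in 96-well plates for 48 hours at 5 doses. GI50 is the concentration that inhibits growth by half.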 Calls of active or inactive are those of the source. Rule as the data show it: active = GI50 up to about 1.1 µM and inactive = higher.

Experiments:
Assay in all cases: NCI-60 cell line screen, 48 h
CCRF-CEM = system: CCRF-CEM
SK-OV-3 = system: SK-OV-3
PC-3 = system: PC-3
MOLT-4 = system: MOLT-4
786-0 = system: 786-0
TK-10 = system: TK-10
MDA-MB-231 = system: MDA-MB-231
SR = system: SR
A498 = system: A498
K562 = system: K562
SF-539 = system: SF-539
Hs-578T = system: Hs-578T
NCI-H23 = system: NCI-H23
T47D = system: T47D
DU-145 = system: DU-145
RPMI-8226 = system: RPMI-8226
LOX IMVI = system: LOX IMVI
DLD-1 = system: DLD-1
KM-20L2 = system: KM-20L2
SNB-78 = system: SNB-78

Measured: GI50

CC1C2CC(CC2O)C1(C)C (stereo not drawn)
inactive: CCRF-CEM > 100 µM | SK-OV-3 > 100 µM | PC-3 > 100 µM | MOLT-4 > 100 µM | 786-0 > 100 µM | TK-10 > 100 µM | MDA-MB-231 > 100 µM | SR > 100 µM | A498 > 100 µM | K562 > 100 µM | SF-539 > 100 µM | Hs-578T > 100 µM | NCI-H23 > 100 µM | T47D > 100 µM | DU-145 > 100 µM

CN1NC(c2ccc(Cl)cc2)=C(C#N)C(=O)CC1c1ccccc1 (stereo not drawn)
inactive: SK-OV-3 > 100 µM | 786-0 > 100 µM | TK-10 > 100 µM | SR > 100 µM | A498 > 100 µM | RPMI-8226 > 100 µM | LOX IMVI > 100 µM | DLD-1 > 100 µM | NCI-H23 > 100 µM | KM-20L2 > 100 µM

c1ccc(-c2nnc(-c3nsc4ccccc34)o2)cc1
inactive: CCRF-CEM > 100 µM | SNB-78 98.9 µM | MOLT-4 > 100 µM | TK-10 > 100 µM | K562 > 100 µM | RPMI-8226 > 100 µM | LOX IMVI > 100 µM | SF-539 > 100 µM | NCI-H23 > 100 µM | KM-20L2 > 100 µM

Nc1nc(O)c2ncn(C3C=CC(CO)O3)c2n1 (stereo not drawn)
inactive: CCRF-CEM 11.1 µM | PC-3 > 100 µM | MOLT-4 > 100 µM | TK-10 > 100 µM | MDA-MB-231 > 100 µM | SR > 100 µM | A498 > 100 µM | RPMI-8226 > 100 µM | LOX IMVI > 100 µM | Hs-578T > 100 µM | NCI-H23 > 100 µM | T47D > 100 µM | DU-145 > 100 µM

O=C(c1ccccc1)c1nc2ccc(Cl)cc2c2c1CCCO2
inactive: SNB-78 > 100 µM | MOLT-4 > 100 µM | TK-10 > 100 µM | SR > 100 µM | K562 > 100 µM | RPMI-8226 > 100 µM | LOX IMVI > 100 µM | NCI-H23 72.8 µM | KM-20L2 > 100 µM

O=C(NN1C(=O)C(Cl)C1c1ccccc1O)c1ccccc1O (stereo not drawn)
inactive: CCRF-CEM 5.12 µM | SK-OV-3 16.1 µM | MOLT-4 23.2 µM | TK-10 47.5 µM | SR 17.8 µM | K562 32.4 µM | RPMI-8226 12.5 µM | SF-539 16.3 µM | NCI-H23 42.5 µM | KM-20L2 4.51 µM

CCOC(=O)C(Cc1ccc(N=NN(C)C)cc1)NC(=O)CC1c2ccccc2-c2ccccc21 (stereo not drawn)
inactive: CCRF-CEM 62.8 µM | SK-OV-3 > 100 µM | MOLT-4 38.3 µM | 786-0 82.4 µM | TK-10 > 100 µM | SR 48.9 µM | A498 > 100 µM | K562 75.2 µM | RPMI-8226 41.6 µM | LOX IMVI 85.3 µM | DLD-1 48.1 µM | SF-539 > 100 µM | NCI-H23 > 100 µM

C=C(C)[C@@H]1CC[C@@H]2C(=CC[C@]3(C)C([C@H](C)CC/C=C(/C)C(=O)O)CC[C@@]23C)[C@@]1(C)CCC(=O)O (stereo partly drawn)
inactive: CCRF-CEM 21.9 µM | SK-OV-3 37.7 µM | PC-3 24.9 µM | 786-0 21.8 µM | TK-10 36.6 µM | MDA-MB-231 25.2 µM | SR 21.3 µM | A498 33.3 µM | K562 33 µM | RPMI-8226 22.9 µM | LOX IMVI 19.2 µM | SF-539 30.4 µM | Hs-578T 33.3 µM | NCI-H23 24 µM | T47D 45.8 µM | DU-145 24.2 µM

Cc1ccc(N2C(=O)/C(=C3\SC(C(N)=O)=C(N)N3c3ccccc3)SC2=S)cc1
inactive: CCRF-CEM > 100 µM | SK-OV-3 28.2 µM | MOLT-4 > 100 µM | TK-10 > 100 µM | A498 4.73 µM | K562 78.7 µM | RPMI-8226 72.4 µM | DLD-1 90.8 µM | SF-539 22.8 µM | NCI-H23 51.1 µM

CCOCNC(=O)N(COCC)COCC
inactive: CCRF-CEM > 100 µM | SK-OV-3 > 100 µM | SNB-78 > 100 µM | MOLT-4 > 100 µM | A498 > 100 µM | K562 > 100 µM | RPMI-8226 > 100 µM | LOX IMVI > 100 µM | DLD-1 > 100 µM | SF-539 > 100 µM | KM-20L2 > 100 µM

c1ccc2c3c(ccc2c1)-c1[nH]ncc1CCO3
inactive: CCRF-CEM 32 µM | SK-OV-3 35.8 µM | SNB-78 29.2 µM | MOLT-4 20.1 µM | A498 > 56 µM | K562 32.8 µM | LOX IMVI 33.1 µM | DLD-1 34.8 µM | SF-539 25 µM | NCI-H23 25.2 µM | KM-20L2 34.5 µM
